Patent US11925643B2, “Toll-like receptor 4 (TLR4) inhibitors and use thereof” (MOR RESEARCH APPLICATIONS LTD., priority 2018, dated 2024)
Each block holds one compound with its values, some of them ahead of it. Non-standard residues stand in square brackets, D forms with d. Residues, ends and D or L forms follow the SMILES beside them. 1Nal = N[C@@H](Cc1cccc2ccccc12)C(=O)O

Key:
[1] = system: TLR2 mRNA; experiment: TLR2 mRNA level by RT-qPCR in hypoxic cardiomyocytes (negative control); type: cell-based; conditions: hypoxic conditions
Method: (§1) Real-time RT-PCR experiments were performed in duplicates on an ABI 7900 instrument (Applied Biosystems™) using Taqman™ Master Mix (Applied Biosystems™). The average threshold cycles (Ct) of the duplicates were used to calculate the relative expression levels of the following genes: TLR4 (Applied Biosystems™ assay primer ID: Mm00569848_m1 Tlr4), TLR2 (assay primer ID: Mm01769726_m1 Tlr2), TNF-α (assay primer ID: Mm00443260_g1 Tnf) and IL-1β (assay primer ID: Mm00434228_m1 II1b) in vitro and in vivo following hypoxia or ischemia, respectively. The reference gene was TBP and the primer used was derived from mouse TATA-box binding protein (Applied Biosystems™ assay primer ID: Mm00446973_m1 Tbp). Amounts of TLR2, TLR4, TNF-α and IL-1β mRNAs in each sample were calculated relative to TBP mRNA, based on the corresponding Cts, as Relative Quantity (RQ) values, and normalized taking as 1 a randomly selected sample of the control group (TBP mRNA). Calculation were performed using the Applied Biosystems Analysis™ software (StepOnePlus V2.2.2). All mRNA scores are presented in arbitrary units.
Next, peptidomimetics of SEQ ID NOs:1 and 2 were tested for their ability to affect the expression of TLR4. The level of TLR4 mRNA was measured by real-time reverse transcriptase polymerase chain reaction (RT-qPCR) method as described in Materials and Methods. […]

[2] = target: T1, TLR4 (Homo sapiens, UniProt O00206); experiment: FACS analysis of TLR4 expressed by macrophages exposed to LPS; type: cell-based; conditions: 10 μM
T1 construct: FACS analysis to test the expression of TLR4 protein by macrophages under LPS treatment; endogenous in cells; host or cells: human peripheral-blood monocytes differentiated into macrophages with M-CSF
T1 sequence (O00206 24-839): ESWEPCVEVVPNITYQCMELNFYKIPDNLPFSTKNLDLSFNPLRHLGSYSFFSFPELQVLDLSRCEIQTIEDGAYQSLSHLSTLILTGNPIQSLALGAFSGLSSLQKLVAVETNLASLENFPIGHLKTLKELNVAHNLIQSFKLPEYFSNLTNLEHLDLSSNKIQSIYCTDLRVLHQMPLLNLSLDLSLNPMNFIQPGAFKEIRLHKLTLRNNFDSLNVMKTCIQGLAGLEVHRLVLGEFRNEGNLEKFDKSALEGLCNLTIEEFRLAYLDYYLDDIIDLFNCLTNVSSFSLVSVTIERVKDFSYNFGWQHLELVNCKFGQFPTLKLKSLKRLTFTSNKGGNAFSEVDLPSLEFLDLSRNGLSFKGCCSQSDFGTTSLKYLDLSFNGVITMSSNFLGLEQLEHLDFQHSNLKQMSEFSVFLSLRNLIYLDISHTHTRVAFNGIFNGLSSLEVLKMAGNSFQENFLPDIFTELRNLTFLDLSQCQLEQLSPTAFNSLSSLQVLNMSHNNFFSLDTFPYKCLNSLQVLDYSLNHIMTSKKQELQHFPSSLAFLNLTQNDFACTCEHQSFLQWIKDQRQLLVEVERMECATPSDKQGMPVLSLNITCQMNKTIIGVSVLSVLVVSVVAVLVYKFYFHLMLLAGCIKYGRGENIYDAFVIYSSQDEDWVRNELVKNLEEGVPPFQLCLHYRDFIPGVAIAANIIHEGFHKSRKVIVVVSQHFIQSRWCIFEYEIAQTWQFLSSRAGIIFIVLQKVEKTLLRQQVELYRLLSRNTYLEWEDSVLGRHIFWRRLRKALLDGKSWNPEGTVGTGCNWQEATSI
Method: Flow cytometry is an analytical cell-biology technique that utilizes light to count and profile cells in a heterogenous fluid mixture. Flow cytometry analysis was used to evaluate binding of antibodies to TLR4 presenting cells. In this assay, an anti-TLR4 antibody was added to a monocytes suspension and cells which bound the antibody were visualized by a fluorescently labeled secondary antibody that bound to the anti-TLR4 antibody (Ab). Accordingly, samples were first “labeled” with the anti-TLR4 antibody, then incubated with Fluor® 488 conjugated to a secondary Ab for TLR4 (CD284) positive cells visualization.
In order to confirm the specificity of binding, and further in order to correct for non-specific or background staining, isotypes control mouse IgGs were added to cell suspensions at the same concentration as the anti-TLR4 Abs. To deduct the non-specific or background staining from the positive staining due to direct Ab binding to the antigen, the level of background staining was assessed by the use of the same fluorochrome as that used for staining the anti-TLR4 Ab.
Peripheral blood (30 ml) was obtained for the isolation of monocytes. Monocytes were purified by density gradient centrifugation as described above, and/or by adherence to plastic in RPMI 1640 medium supplemented with 10% fetal bovine serum (FBS) and antibiotics. Peripheral blood mononuclear cells (PBMCs) (10^6 cells/ml) were first seeded into 24-well plates (0.5 ml per well), after 2 hours, non-adherent cells were removed by several washes with warm PBS.
Monocytes freshly isolated either by density gradient centrifugation by adherence differentiated into macrophages in complete RPMI 1640 medium supplemented with human recombinant macrophage colony stimulating factor (100 ng/ml) for 6 days. To confirm macrophage cell lineage, direct immunostaining was performed with an antibody directed against CD11b/mac1 (Biolegend® Inc., San Diego, Calif., USA). Eighty percent (80%) of positive staining was observed by flow cytometry analysis. The proportion of TLR4 in this separated cell fraction was examined by FACS analysis using, as isotype control, mouse IgG2a IsoControl (eBioscience™ #53-4724-80), and mouse anti-human CD284 Alexa Fluor® 488 Clone FITA125 secondary Ab (Isotype IgG2a. eBioscience™ #53-9917-41), which recognizes the human TLR4 (also known as CD284) cell surface antigen. Cells were analyzed in a BC Gallios Flow Cytometer (Beckman Coulter, Indianapolis Ind., USA) and were initially gated on the basis of forward and side scatter characteristics. Kaluza Software was used to analyze the results. Results are expressed as mean fluorescence intensity (MFI) and also as normalized to control. […]

[3] = system: TLR4 mRNA; experiment: TLR4 mRNA level by RT-qPCR in hypoxic cardiomyocytes; type: cell-based; conditions: hypoxic conditions
Method: as §1
Next, peptidomimetics of SEQ ID NOs:1 and 2 were tested for their ability to affect the expression of TLR4. The level of TLR4 mRNA was measured by real-time reverse transcriptase polymerase chain reaction (RT-qPCR) method as described in Materials and Methods. The possible effect of both compounds on expression levels of TLR2 mRNA was used as a negative control.

[4] = system: primary cardiomyocytes; experiment: CK and LDH release by primary cardiomyocytes under hypoxia (MI like); type: cell-based, Rat; conditions: 10 μM, FIGS. 2A, 2B
Method: (§2) Rat hearts (1-2 days old) were removed under sterile conditions and washed three times in phosphate-buffered saline (PBS) to remove excess blood cells. The hearts were minced and then gently agitated in RBD (a solution of proteolytic enzymes (Biological Institute, Ness-Ziona, Israel) prepared from fig tree extract, and diluted 1:100 in Ca^2+- and Mg^2+-free PBS) for a few cycles of 10 min each. Dulbecco's modified Eagle's medium (Biological Industries, Kibbutz Beit Haemek, Israel) containing 10% horse serum was added to supernatant suspensions containing the dissociated cells. The mixture was centrifuged at 1400 rpm for 4 min. The supernatant phase was discarded, and the cells were re-suspended. The cell suspension was diluted to 1.0×10^6 cells/ml, unless stated otherwise, and 1.5 ml of the suspension was placed in 35-mm plastic culture dishes collagen- or gelatin-coated, or on coated cover glasses. The cultures were incubated in a humidified atmosphere of 5% CO2 and 95% air at 37° C.
Using a vacuum pump, the oxygen rich air was evacuated from an incubator containing plates with cell cultures, and a 100% Argon atmosphere was let in, while maintaining a temperature of 37° C. The cell cultures were washed with PBS twice to remove glucose from the medium. Hypoxic treated cells were cultures in PBS without glucose. These cells lasted for 180 minutes.
(§3) Primary cardiomyocytes which were obtained by method described above, were treated with exemplary decoy peptides described herein. After 30 minutes of incubation, sepsis like (LPS treatment for 6 hours), or myocardial infarction (MI) like (hypoxia for 3 hours) conditions were imposed to measure the release of CK and LDH to the medium and determine the potential cardioprotective effect of the tested decoy peptides. Cytotoxicity and level of cell damage were assessed by spectrophotometric measurement of lactate dehydrogenase (LDH) and creatine kinase (CK) activities (at 30° C.). Results are presented as CK and LDH release in arbitrary units (a.u.)
(§4) Activity of LDH and CK was determined in the cell-culture medium (25 μl) transferred into 96-well plates, using commercial L-LDH/CK kits (such as those manufactured, e.g., by Sigma-Aldrich, BioVision™ or Thermo Fisher Scientific®).
(§5) Primary cardiomyocytes were treated with peptides and peptidomimetics of SEQ ID NOs:1-7 provided at concentrations ranging from 1 μM to 20 μM. Following 30 minutes of incubation, sepsis like (LPS treatment for 6 hours) or MI like (hypoxia for 3 hours) conditions were induced to determine the potential cardioprotective effect of the tested compounds. Creatine kinase (CK) and lactate dehydrogenase (LDH) activity were assayed to determine the level of cellular damage and cell protection effect. The experimental procedure is described in Materials and Methods above. Results are presented as CK and LDH release in arbitrary units (a.u.).

[5] = system: IκB; experiment: IκB protein level by Western blot in hypoxic cardiomyocytes; type: cell-based; conditions: normalized to β-actin
Method: Frozen tissue/cell cultures of liver or heart were pulverized under liquid nitrogen and placed in a homogenization buffer ([…] phosphate buffer, […] sucrose, […] EDTA, […] phenylmethylsulfonyl fluoride (PMSF), and 0.1% vol/vol tergitol, pH 7.5). Myocytes from cell cultures were homogenized in lysis buffer.
Homogenates were centrifuged at 12K rpm for 10 minutes at 4° C., the supernatant was isolated, and protein levels were visualized by immunoblotting with antibodies. Briefly, proteins (60 μg/sample) were separated using SDS-PAGE gel (12%-15%) under denaturing conditions and electro-transferred (blotted) onto nitrocellulose (Bio-Rad) for 1 hour at 100 V. Membranes were blocked with 5% nonfat milk in Tris-buffered saline with 0.1% Tween® 20 (TBST) for 1 hour at room temperature. Primary antibodies were used at a 1:200-1:1000 concentration in TBST with 5% nonfat milk overnight at 4° C. Immunodetection of β-actin/GPDH was performed as an internal control. Dye 800/680 secondary antibodies were added at a concentration of 1:15000 for 1 hour at room temperature (LI-COR® Biosciences, NE, USA). Detection was carried out with LI-CORE® Odyssey® imaging system. Quantification of signals was carried out with the Odyssey® program.
The mechanism of action of peptidomimetics of SEQ ID NOs:1, 2 and 12 was studied in vitro in cardiomyocytes, under hypoxic conditions, by determining the expression level of the IκB gene, which is regulated by activation of TLR4, and by measuring the TLR4 mRNA levels. In addition, TLR4 expression level was measured in macrophage (derived from monocytes) treated with LPS.
IκB protein level was determined by Western blot as described in Material and Methods. The amount of IκB was normalized via-a-vis the amount of β-actin serving as the loading control (the β-actin is coded by a housekeeping gene and its level is expected to remain constant under any experimental conditions).

[6] = system: primary cardiomyocytes; experiment: CK and LDH release by primary cardiomyocytes under LPS treatment (sepsis like); type: cell-based, Rat; conditions: LPS system; 10 μM
Method: as §2, §3, §4, §5

TLR4 expression level ([2]; 30 min before LPS (100 ng/ml or 20 μg/ml), 4 hours): toward baseline levels
lowering the expression of TLR4 in the presence of LPS, compared with SEQ ID NO: 25 ([2]; low and high LPS): more effective
Structure (SMILES): CC(=O)N[C@H](C(=O)N[C@@H](Cc1ccccc1)C(=O)N[C@@H](C)C(=O)N[C@@H](CCC(=O)O)C(N)=O)C(C)C [SEQ ID NO:2, (4S,7S,10S,13S)-7-benzyl-13-carbamoyl-4-isopropyl-10-methyl-2,5,8,11-tetraoxo-3,6,9,12-tetraazahexadecan-16-oic acid] (Ac-VFAE-NH2)
TLR2 mRNA expression level [1]: relatively unaffected
TLR4 mRNA expression level [3]: significantly decreased

Structure (SMILES): CC(=O)N[C@@H](Cc1ccccc1)C(=O)N[C@@H](C)C(=O)N[C@@H](CCC(=O)O)C(N)=O [SEQ ID NO:8, (S)-4-((S)-2-((S)-2-acetamido-3-phenylpropanamido)propanamido)-5-amino-5-oxopentanoic acid] (Ac-Phe-Ala-Glu-NH2)
cell protective effect (CK and LDH release) [4]: substantial cell protective effect

Structure (SMILES): CC(=O)N[C@@H](Cc1ccccc1)C(=O)NCCC(=O)N[C@@H](CCC(=O)O)C(N)=O [SEQ ID NO:9, (S)-4-(3-((S)-2-acetamido-3-phenylpropanamido)propanamido)-5-amino-5-oxopentanoic acid]
cell protective effect (CK and LDH release) [4]: substantial cell protective effect

Structure (SMILES): CC(=O)NC(C(=O)N[C@@H](C)C(=O)N[C@@H](CCC(=O)O)C(N)=O)c1cccc2ccccc12 (stereo partly drawn) [SEQ ID NO:11, (4S)-4-((2S)-2-(2-acetamido-2-(naphthalen-1-yl)acetamido)propanamido)-5-amino-5-oxopentanoic acid]
cell protective effect (CK and LDH release) [4]: substantial cell protective effect

Structure (SMILES): CC[C@H](C)[C@H](NC(C)=O)C(=O)N[C@H](C(=O)NC(C(=O)N[C@@H](C)C(N)=O)c1cccc2ccccc12)C(C)C (stereo partly drawn) [SEQ ID NO:12, (2S,3S)-2-acetamido-N-((2S)-1-((2-(((S)-1-amino-1-oxopropan-2-yl)amino)-1-(naphthalen-1-yl)-2-oxoethyl)amino)-3-methyl-1-oxobutan-2-yl)-3-methylpentanamide]
IκB level [5]: high levels

Structure (SMILES): CC(C)[C@H](NC(=O)CN[C@@H](C)C(C)(C)C)C(=O)N[C@@H](Cc1ccccc1)C(=O)N[C@@H](C)C(N)=O [SEQ ID NO:17, (S)-N-((S)-1-(((S)-1-amino-1-oxopropan-2-yl)amino)-1-oxo-3-phenylpropan-2-yl)-2-(2-(((S)-3,3-dimethylbutan-2-yl)amino)acetamido)-3-methylbutanamide]
cellular protection / cytoprotective effect (CK and LDH release) [6]: significant cytoprotective effect

Structure (SMILES): CC(=O)N[C@H](C(=O)N[C@@H](Cc1cccc2ccccc12)C(=O)N[C@@H](C)C(=O)N[C@@H](CCC(=O)O)C(N)=O)C(C)C [SEQ ID NO:19, (4S,7S,10S,13S)-13-carbamoyl-4-isopropyl-10-methyl-7-(naphthalen-1-ylmethyl)-2,5,8,11-tetraoxo-3,6,9,12-tetraazahexadecan-16-oic acid] (Ac-V[1Nal]AE-NH2)
cellular protection / cytoprotective effect (CK and LDH release) [6]: significant cytoprotective effect
